Laboratory results as given in patent US20200376011A1, “COMPOSITION FOR TREATING CANCER INCLUDING ALGINATE OLIGOSACCHARIDE AS AN ACTIVE INGREDIENT” (BIO3S, INC, priority 2019, published 2020).

Test system: infiltration of NK cells into ECM (collagen) toward cancer cells (A549)
Assay: NK cell infiltration in tumor microenvironment (TME) simulating organ-on-a-chip model
Assay type: cell-based
Conditions: co-treatment with NK cells and M5 versus NK cells alone; 48 hours; high-concentration collagen cell barrier model
Excerpt: The efficacy as a cancer adjuvant was examined by administering tumor microenvironment (TME) simulating models (organ-on-a-chips) with NK cells and the indicator component M5 for the active ingredient of the present disclosure.
NK cells, known to have anti-cancer efficacy as immune cells, were examined for a change in infiltration ability into tumor tissues according to whether or not NK cells were co-administered with M5. The qualification criterion was the infiltration ability of immune cells into ECM, which was determined by the infiltration distance of NK cells and whether or not the number of infiltrating cells was increased. Collagen was selected as a representative type of ECM. The cells were seeded into the chips under a […] collagen condition, and after 6 hours and 48 hours, the infiltration of NK cells toward the medium and cancer cell (A549) channels was observed.
A comparison was made for the infiltration ability of NK cells between the treatment with NK cells alone and the co-treatment with NK cells and M5, for 48 hours in high-concentration collagen cell barrier models.

## penta-mannuronic acid sodium salt [M5]
  infiltration ability of NK cells into cancer cells: enhanced
